Measurements as given in patent US20080027088A1, “Imidazole-Based Hmg-Coa Reductase Inhibitors” (Warner-Lambert Company, LLC, priority 2004, published 2008).

Key:
[1] = system: ApoE KO mice fed a Western diet; experiment: Lesion development in the cuffed femoral artery, 4 weeks; assay type: in vivo
Description: Animal experiments—Male C57BI/6J and ApoE KO mice on C57BI/6J background were obtained from the Jackson Laboratory (Bar Harbor, Me.) or Taconic (Germantown, N.Y.) (Plaque formation in ApoE KO mice is lipid-driven (A. S. Plump et al., Cell. 1992;71 (2):343-53)). Myriocin was mixed with Western diet containing 0.21% cholesterol and 21% fat. 8-12-week-old mice received 0.3 mg myriocin/kg/day for 12 weeks (Table 1). 10-12 week-old ApoE KO mice (n=8) were pre-fed a western diet for 2 weeks and mice received various concentrations of myriocin for 4 weeks in diet admix. Control groups consisted of ApoE KO mice fed normal chow or Western diet without myriocin, and normal chow-fed C57BI/6J mice. Body weight and chow feeding was measured every week to examine the food consumption. For the femoral artery cuff model, 8-10 week-old male ApoE KO mice were anethetized and the right femoral artery was dissected from its surroundings. A nonconstrictive polyethylene cuff (Portex, 0.40-mm inner diameter, 0.80-mm outer diameter, and 1.5-mm length) was placed looselyaround the right femoral artery.
For histological analysis, the mice were perfused and fixed in Zinc-Tris fixative. Paraffin embedded sections were stained with Masson's Trichrome. Intimal macrophages were immunohistochemically stained using MAC-2 antibody (clone M3/38 from Cedarlane Laboratories Limited) counterstained with Verhoeff elastic stain. T-lymphocytes were immunohistochemically stained with rat CD3 antibody (clone CD3-12, Serotec). Lesion thickness and area occupied by macrophages were determined using Image Pro Plus software.
FIG. 5. Lesion Development in the Cuffed Femoral Artery of ApoE KO mice Fed a Western Diet. Mice were anesthetized and the right femoral artery was dissected from its surroundings. […] Atherosclerotic lesion (black bar) and macrophage size (gray bar) in the femoral artery were quantified by using Image Pro Plus software (FIG. 5A). Plasma serum amyloid A levels were determined by colormetric ELISA (FIG. 5B). […]

[2] = system: ApoE KO mice fed a Western diet; experiment: Lipid deposition in en face aorta, Oil Red O staining, 12 weeks; assay type: in vivo
From the text: Vascular pathology—For quantitative analysis of atherosclerotic lesion coverage, sacrificed mice were perfused with saline and the aorta was isolated from the heart to the iliac bifurcation by severing minor branching arteries and dissecting the adventitia. After 24 hrs of fixation with 10% buffered formalin, aorta was opened longitudinally and pinned down on the black wax. Lipids were stained with Oil Red O and photographs were taken. The percentage of aorta stained with Oil Red O was determined by image analysis software, Image Pro Plus.
FIG. 10. Lipid deposition in aortae of Western-diet fed ApoE KO mice. ApoE KO mice were fed with Western diet in the presence or absence of myriocin for 12 weeks. Mice were sacrificed and fixed with 10% buffered formalin for 24 hours. The aorta from heart to the iliac bifurcation was dissected, opened along the ventral surface and pinned down on a black wax background. Accumulated lipids were visualized by Oil Red O staining. Areas of the atherosclerotic lesion were quantified by using Image Pro Plus and represented as percentage of lesion area to total aorta area. The values reported are mean±SEM (n=4, WD vs. WD+myriocin or normal chow, *P<0.01; Normal vs. WD+myriocin, #P<0.01). Bar represents 1 cm.

CCCCCCC(=O)CCCCCC/C=C/C[C@@H](O)[C@H](O)[C@@](N)(CO)C(=O)O [myriocin]
reduction of development of atherosclerotic lesions, cuffed femoral artery ([1]; 0.1 mg/kg/day): 43% | reduction of macrophage accumulation, cuffed femoral artery ([1]; 0.1 mg/kg/day): 47% | lesion area reduced, cuffed femoral artery ([1]; 0.3 mg/kg/day, vs no-myriocin control): more than 98% | atherosclerotic lesion decreased, en face aorta (Oil Red O) ([2]; compared with normal chow-fed ApoE KO mice): 75% | atherosclerotic lesion coverage reduced, en face aorta (Oil Red O) ([2]; vs Western diet-fed ApoE KO mice): 93%
